Measurements as given in patent US20090311237A1, “Combination therapy using a soluble hyaluronidase and a bisphosphonate” (priority 2008, published 2009).

Assay: Phase 1 Stage 1 clinical pharmacokinetics of SC ZA co-administered with rHuPH20
Assay type: in vivo, human
Method: A pharmacokinetic study of zoledronic acid (ZA) co-administered with rHuPH20 in human subjects was conducted. The primary objective of the study was to determine the bioavailability of zoledronic acid dosed via subcutaneous (SC) co-administration with human recombinant hyaluronidase PH20 (rHuPH20). […] The patients were administered the prescribed dosage formulations as follows: Cohorts 1-5 were administered a single subcutaneous infusion in a dosage volume of 100 ml at a rate of 3 mL/min. […] The dosing solution is administered via needle or catheter into the SC space of the left anterior thigh (midway between the anterior iliac crest and the cephalad border of the patella). For cohorts 1-5, the dosing solutions were administered by a controlled rate infusion pump at approximately 3 mL/minute. […] The dosing solutions were administered by syringe push bolus injection. […] Serum concentration of ZA was determined using a qualified LC-MS-MS assay after derivatization with diazomethane (Zhu, L S et al. (2006) Rapid Commun. […] The assay range was from 2.0 to 400 ng/mL with a lower limit of quantitation (LLOQ) at 2.0 ng/mL. […] Non-compartmental analysis was used for derivation of primary and secondary pharmacokinetic (PK) parameters. […] Summary statistics (mean, standard deviation, and median) were calculated using JMP or Microsoft Excel.

[1] = Subj 1, ZA […] SC, inf 0.554 hr, PH20 23928 U
[2] = Subj 8, ZA […] SC, inf 0.531 hr, PH20 22944 U
[3] = Subj 11, ZA […] SC, inf 0.554 hr, PH20 23928 U
[4] = Subj 16, ZA […] SC, inf 0.553 hr, PH20 23904 U
[5] = Subj 18, ZA […] SC, inf […], PH20 23304 U
[6] = Subj 21, ZA […] SC, inf 0.556 hr, PH20 24000 U
[7] = Subj 25, ZA […] SC, inf 0.549 hr, PH20 23736 U
[8] = Subj 26, ZA […] SC, inf […], PH20 23088 U
[9] = Subj 27, ZA 0.0196 mg/kg SC, inf […], PH20 23976 U
[10] = Subj 29, ZA 0.0339 mg/kg SC, inf 0.556 hr, PH20 24000 U
[11] = Subj 31, ZA […] SC, inf 0.554 hr, PH20 23952 U
[12] = Subj 32, ZA […] SC, inf 0.556 hr, PH20 24000 U
[13] = Subj 37, ZA 0.0791 mg/kg SC, inf 0.556 hr, PH20 24000 U
[14] = Subj 38, ZA 0.0706 mg/kg SC, inf 0.554 hr, PH20 23952 U
[15] = Subj 39, ZA 0.0691 mg/kg SC, inf 0.552 hr, PH20 23856 U
[16] = Subj 41, ZA 0.0653 mg/kg SC, inf […], PH20 12216 U
[17] = Subj 46, ZA 0.0877 mg/kg SC, inf 0.276 hr, PH20 12000 U
[18] = Subj 51, ZA […] SC, inf 0.251 hr, PH20 6024 U

O=P(O)(O)C(O)(Cn1ccnc1)P(=O)(O)O [ZA, 1-hydroxy-2-(1H-imidazol-1-yl)ethylidene-1,1-bisphosphonic acid]
AUC (0-inf)/D [1]: 0.006638 kg·h/mL | CL [1]: 2.511 mL/min/kg | Cmax/D [1]: 0.001722 kg/mL | Vss [1]: 0.44318 L/kg | Vz [1]: 0.40861 L/kg | AUC (0-inf)/D [2]: 0.01019 kg·h/mL | CL [2]: 1.635 mL/min/kg | Cmax/D [2]: 0.001772 kg/mL | Vss [2]: 0.45621 L/kg | Vz [2]: 0.43706 L/kg | AUC (0-inf)/D [3]: 0.009322 kg·h/mL | CL [3]: 1.7878 mL/min/kg | Cmax/D [3]: 0.002073 kg/mL | Vss [3]: 0.36447 L/kg | Vz [3]: 0.33982 L/kg | AUC (0-inf)/D [4]: 0.007097 kg·h/mL | CL [4]: 2.3485 mL/min/kg | Cmax/D [4]: 0.001739 kg/mL | Vss [4]: 0.44893 L/kg | Vz [4]: 0.44919 L/kg | AUC (0-inf)/D [5]: 0.00801 kg·h/mL | CL [5]: 2.0807 mL/min/kg | Cmax/D [5]: 0.002012 kg/mL | Vss [5]: 0.40254 L/kg | Vz [5]: 0.40424 L/kg | AUC (0-inf)/D [6]: 0.009748 kg·h/mL | CL [6]: 1.7097 mL/min/kg | Cmax/D [6]: 0.002152 kg/mL | Vss [6]: 0.34316 L/kg | Vz [6]: 0.33661 L/kg | AUC (0-inf)/D [7]: 0.006861 kg·h/mL | CL [7]: 2.4293 mL/min/kg | Cmax/D [7]: 0.00176 kg/mL | Vss [7]: 0.77861 L/kg | Vz [7]: 1.64423 L/kg | AUC (0-inf)/D [8]: 0.01198 kg·h/mL | CL [8]: 1.391 mL/min/kg | Cmax/D [8]: 0.002609 kg/mL | Vss [8]: 0.42621 L/kg | Vz [8]: 1.01736 L/kg | AUC (0-inf)/D [9]: 0.006142 kg·h/mL | CL [9]: 2.7135 mL/min/kg | Cmax/D [9]: 0.001276 kg/mL | Vss [9]: 0.91422 L/kg | Vz [9]: 1.53448 L/kg | AUC (0-inf)/D [10]: 0.007095 kg·h/mL | CL [10]: 2.349 mL/min/kg | Cmax/D [10]: 0.001853 kg/mL | Vss [10]: 0.66499 L/kg | Vz [10]: 1.76877 L/kg | AUC (0-inf)/D [11]: 0.007665 kg·h/mL | CL [11]: 2.1745 mL/min/kg | Cmax/D [11]: 0.001699 kg/mL | Vss [11]: 0.67025 L/kg | Vz [11]: 1.66854 L/kg | AUC (0-inf)/D [12]: 0.008441 kg·h/mL | CL [12]: 1.9745 mL/min/kg | Cmax/D [12]: 0.001677 kg/mL | Vss [12]: 1.2493 L/kg | Vz [12]: 3.76429 L/kg | AUC (0-inf)/D [13]: 0.007838 kg·h/mL | CL [13]: 2.1265 mL/min/kg | Cmax/D [13]: 0.001656 kg/mL | Vss [13]: 1.39565 L/kg | Vz [13]: 4.2995 L/kg | AUC (0-inf)/D [14]: 0.009027 kg·h/mL | CL [14]: 1.8463 mL/min/kg | Cmax/D [14]: 0.001657 kg/mL | Vss [14]: 1.52947 L/kg | Vz [14]: 3.90822 L/kg | AUC (0-inf)/D [15]: 0.01052 kg·h/mL | CL [15]: 1.584 mL/min/kg | Cmax/D [15]: 0.002127 kg/mL | Vss [15]: 1.20501 L/kg | Vz [15]: 3.57183 L/kg | AUC (0-inf)/D [16]: 0.01128 kg·h/mL | CL [16]: 1.478 mL/min/kg | Cmax/D [16]: 0.002159 kg/mL | Vss [16]: 2.37143 L/kg | Vz [16]: 5.48166 L/kg | AUC (0-inf)/D [17]: 0.008516 kg·h/mL | CL [17]: 1.957 mL/min/kg | Cmax/D [17]: 0.002429 kg/mL | Vss [17]: 1.09639 L/kg | Vz [17]: 3.51646 L/kg | AUC (0-inf)/D [18]: 0.009685 kg·h/mL | CL [18]: 1.721 mL/min/kg | Cmax/D [18]: 0.001817 kg/mL
